Data as given in publication PMC7760514, “Fatty Acid Conjugation Leads to Length-Dependent Antimicrobial Activity of a Synthetic Antibacterial Peptide (Pep19-4LF)” (Antibiotics, 2020).
In brackets after ≈: the same amount, converted by molar mass. Peptide text beside a SMILES is read from it. * marks the point of attachment. Stearoyl = CCCCCCCCCCCCCCCCCC(=O)*; Palmitoyl = CCCCCCCCCCCCCCCC(=O)*; Myristoyl = CCCCCCCCCCCCCC(=O)*; Lauroyl = CCCCCCCCCCCC(=O)*; Decanoyl = CCCCCCCCCC(=O)*; Octanoyl = CCCCCCCC(=O)*

Legend:
[1] = test system: Acinetobacter bohemicus (DSM 100419); test: Minimal bactericidal concentration (MBC); assay type: cell-based; details: Table S2, n=3; unit inferred; lowest concentration killing 99.9% of the inoculum; agar 24 h, 30 ± 1 °C
Procedure: (§1) Minimal bactericidal concentrations (MBCs) were determined by pipetting 3 µL of each broth dilution solution without visible growth onto a new agar plate. The agar plates were incubated at 37 ± 1 °C (for A. bohemicus: 30 ± 1 °C) for 24 h and were again analyzed with respect to bacterial growth. MBC is defined as the lowest concentration killing 99.9% of the inoculum.

[2] = test system: Acinetobacter bohemicus (DSM 100419); test: Minimal inhibitory concentration (MIC), broth microdilution; assay type: cell-based; design: key to MIC value: MIC in μg/mL (lowest concentration without visible growth); details: 30 ± 1 °C; for MIC value: Table S2, n=3, no unit given (main text uses µg/mL); for MIC: broth microdilution, cation-adjusted MHB II, 5 × 10^5 cfu/mL, read after 18 to 20 h, n = 3
Procedure: (§2) Minimal inhibitory concentrations (MICs) were determined against Gram-positive Enterococcus faecium vanA (UL 602570*, clinical isolate from Institute for Medical Microbiology and Hygiene, Heidelberg University Hospital, Heidelberg, Germany), Staphylococcus aureus (ATCC 25923), Rothia kristinae (DSM 20032), and Gram-negative Acinetobacter bohemicus (DSM 100419) (all obtained from the Department of Infectious Diseases, Medical Microbiology and Hygiene, Heidelberg University, Heidelberg, Germany) in a 96-well polypropylene plate (650261 Greiner Bio-One GmbH, Frickenhausen, Germany) according to European Committee on Antimicrobial Susceptibility Testing (EUCAST) and The Clinical & Laboratory Standards Institute (CLSI) guidelines. Briefly, the stock solutions of the peptide conjugates in water were adjusted to a concentration of 1.28 mg/mL. Starting with the highest concentration of 64 μg/mL in 96-well polypropylene plates, dilution series in cation-adjusted Mueller–Hinton broth (MHB II; Sigma Aldrich, Steinheim, Germany) were performed, resulting in the lowest concentration of 0.125 μg/mL. A logarithmic growing bacterial culture was adjusted to a McFarland corresponding to 1 × 10^8 cfu/mL using a McFarland counter (DensiCHEK® plus, bioMerieux, Marcy-l’Étoile, France). Finally, a bacterial suspension of 1 × 10^6 cfu/mL (further diluted in MHB II) was added to each peptide-conjugate concentration. Thus, the final bacterial concentration in each well was 5 × 10^5 cfu/mL. The bacteria were incubated at 37 ± 1 °C (for A. bohemicus: 30 ± 1 °C) overnight and the bacterial growth was analyzed after 18 to 20 h. The MIC was defined as the lowest concentration of substance without any visible growth. Vancomycin and colistin sulfate were purchased from Sigma-Aldrich Chemie GmbH, München, Germany and Carl Roth GmbH, Karlsruhe, Germany.

[3] = test system: Staphylococcus aureus (ATCC 25923); test: as above; assay type: cell-based; details: cation-adjusted MHB II, 5 × 10^5 cfu/mL, 37 ± 1 °C, read after 18 to 20 h, n = 3
Procedure: as §2

[4] = test system: Rothia kristinae (DSM 20032); test: Minimal bactericidal concentration (MBC); assay type: cell-based; details: Table 3 of supplement, n=3; unit inferred; lowest concentration killing 99.9% of the inoculum; agar 24 h, 37 ± 1 °C
Procedure: as §1

[5] = test system: Rothia kristinae (DSM 20032); test: Minimal inhibitory concentration (MIC), broth microdilution; assay type: cell-based; details: Table 3 of supplement, n=3; unit inferred; 37 ± 1 °C
Procedure: as §2

[6] = assay type: physicochemical
Excerpt: The high MIC value of Pep19-short indicates the importance of a hydrophobic moiety for this synthetic antimicrobial peptide. […] If the length of the fatty acid is too short, the interaction between the peptide conjugate and components of the bacterial cell membrane might be unfavorable, thus leading to loss of efficiency. Fatty acids of medium chain length enable a stable plateau of low MIC values, indicating a more efficient interaction between the peptide conjugate and bacterial cells. […] A detailed interaction between Pep19 peptides and membrane-bound toxins was previously described by Correa et al.. […] A hypothesized mechanism for this interaction represents the reorganization of the bacterial membrane leading in an inability to maintain the osmotic pressure. Here, the positively-charged amino acids of the peptide conjugate might interact with the negatively-charged compounds of the bacterial cell wall and the hydrophobic part interacts with hydrophobic lipids of the bacterial membrane. Several mechanisms for a membrane disruption by amphiphilic peptides were further described by Sato and Feix. With respect to the parent peptide Pep19-4LF, the hydrophobic moiety was located at the C-terminus. As the synthesis leads to peptides that are linked to the resin via their C-terminus, the fatty acids were linked to the free N-terminus of the peptide. […]

[7] = rat, in vivo, iv
Procedure: For this purpose, the tyrosine residues of the peptides were radiolabeled with ^125I (Hartmann Analytic GmbH, Braunschweig, Germany) using the chloramine-T method [28]. Free ^125I was separated by preparative HPLC as previously described by Schieck et al. [22]. Approximately 2 to 4 MBq of the radiolabeled peptides was injected intravenously into the tail vein and images were recorded immediately post injection and after 1 h, 2 h, 3 h, 5 h, and 24 h. Scintigraphical images were obtained by using a γ-camera (Gamma Imager, Biospace Lab, Paris, France).

[8] = test system: Rothia kristinae (DSM 20032); test: Time-kill studies; assay type: cell-based; details: for change in number of cfu/mL: 0.5 × MIC, 0 to 8 h
Procedure: Time–kill studies were performed in accordance with CLSI guidelines. Therefore, Rothia kristinae DSM 20032 was adjusted to a concentration of 1 x 10^8 cfu/mL and further diluted to 1 × 10^6 cfu/mL in cation-adjusted MHB II. According to the previous determined MIC values of Pep19-4LF, C11-Pep19-4LF, and bacitracin (positive control) (Sigma Aldrich Chemie GmbH, München, Germany), samples were taken for 4 × MIC, 2 × MIC, 1 × MIC, and 0.5 × MIC after 30 min, 1 h, 2 h, 4 h, and 8 h. These samples were diluted in sterile saline and 10 µL of each sample was loaded onto agar plates. A bacterial suspension of 1 × 10^6 cfu/mL served as a growth control. Incubation occurred at 37 ± 1 °C and all counted colonies were recalculated to the colony number in the original inoculum.

[9] = test system: Enterococcus faecium (UL602570*, clinical isolate, vanA-resistant); test: Minimal inhibitory concentration (MIC), broth microdilution; assay type: cell-based; details: cation-adjusted MHB II, 5 × 10^5 cfu/mL, 37 ± 1 °C, read after 18 to 20 h, n = 3
Procedure: as §2

[10] = 4 × MIC, 1 × 10^6 cfu/mL in MHB II, 37 °C, n = 3

Row | Compound | MBC value [1] | MIC value [2] | MIC [2] | MIC [3] | further results
1 | CCCCCCCC(=O)NCC(=O)N[C@@H](CCCCN)C(=O)N[C@@H](CCCCN)C(=O)N[C@@H](Cc1ccc(O)cc1)C(=O)N[C@@H](CCCNC(=N)N)C(=O)N[C@@H](CCCNC(=N)N)C(=O)N[C@@H](Cc1ccccc1)C(=O)N[C@@H](CCCNC(=N)N)C(=O)N[C@@H](Cc1c[nH]c2ccccc12)C(=O)N[C@@H](CCCCN)C(=O)N[C@@H](Cc1ccccc1)C(=O)N[C@@H](CCCCN)C(=O)NCC(=O)N[C@@H](CCCCN)C(N)=O [C8-Pep19-short] (Octanoyl-GKKYRRFRWKFKGK-NH2) | 8 µg/mL (≈ 3.98 µM) | 8 | – | – | –
2 | CCCCCCCCCC(=O)NCC(=O)N[C@@H](CCCCN)C(=O)N[C@@H](CCCCN)C(=O)N[C@@H](Cc1ccc(O)cc1)C(=O)N[C@@H](CCCNC(=N)N)C(=O)N[C@@H](CCCNC(=N)N)C(=O)N[C@@H](Cc1ccccc1)C(=O)N[C@@H](CCCNC(=N)N)C(=O)N[C@@H](Cc1c[nH]c2ccccc12)C(=O)N[C@@H](CCCCN)C(=O)N[C@@H](Cc1ccccc1)C(=O)N[C@@H](CCCCN)C(=O)NCC(=O)N[C@@H](CCCCN)C(N)=O [C10-Pep19-short] (Decanoyl-GKKYRRFRWKFKGK-NH2) | 4 µg/mL (≈ 1.96 µM) | 4 | – | – | –
3 | CCCCCCCCCCCC(=O)NCC(=O)N[C@@H](CCCCN)C(=O)N[C@@H](CCCCN)C(=O)N[C@@H](Cc1ccc(O)cc1)C(=O)N[C@@H](CCCNC(=N)N)C(=O)N[C@@H](CCCNC(=N)N)C(=O)N[C@@H](Cc1ccccc1)C(=O)N[C@@H](CCCNC(=N)N)C(=O)N[C@@H](Cc1c[nH]c2ccccc12)C(=O)N[C@@H](CCCCN)C(=O)N[C@@H](Cc1ccccc1)C(=O)N[C@@H](CCCCN)C(=O)NCC(=O)N[C@@H](CCCCN)C(N)=O [C12-Pep19-short] (Lauroyl-GKKYRRFRWKFKGK-NH2) | 4 µg/mL (≈ 1.94 µM) | 4 | – | – | –
4 | CCCCCCCCCCCCCC(=O)NCC(=O)N[C@@H](CCCCN)C(=O)N[C@@H](CCCCN)C(=O)N[C@@H](Cc1ccc(O)cc1)C(=O)N[C@@H](CCCNC(=N)N)C(=O)N[C@@H](CCCNC(=N)N)C(=O)N[C@@H](Cc1ccccc1)C(=O)N[C@@H](CCCNC(=N)N)C(=O)N[C@@H](Cc1c[nH]c2ccccc12)C(=O)N[C@@H](CCCCN)C(=O)N[C@@H](Cc1ccccc1)C(=O)N[C@@H](CCCCN)C(=O)NCC(=O)N[C@@H](CCCCN)C(N)=O [C14-Pep19-short] (Myristoyl-GKKYRRFRWKFKGK-NH2) | 8 µg/mL (≈ 3.82 µM) | 8 | – | – | –
5 | CCCCCCCCCCCCCCCC(=O)NCC(=O)N[C@@H](CCCCN)C(=O)N[C@@H](CCCCN)C(=O)N[C@@H](Cc1ccc(O)cc1)C(=O)N[C@@H](CCCNC(=N)N)C(=O)N[C@@H](CCCNC(=N)N)C(=O)N[C@@H](Cc1ccccc1)C(=O)N[C@@H](CCCNC(=N)N)C(=O)N[C@@H](Cc1c[nH]c2ccccc12)C(=O)N[C@@H](CCCCN)C(=O)N[C@@H](Cc1ccccc1)C(=O)N[C@@H](CCCCN)C(=O)NCC(=O)N[C@@H](CCCCN)C(N)=O [C16-Pep19-short] (Palmitoyl-GKKYRRFRWKFKGK-NH2) | > 64 µg/mL | > 64 | higher MIC values | higher MIC values | –
6 | CCCCCCCCCCCCCCCCCC(=O)NCC(=O)N[C@@H](CCCCN)C(=O)N[C@@H](CCCCN)C(=O)N[C@@H](Cc1ccc(O)cc1)C(=O)N[C@@H](CCCNC(=N)N)C(=O)N[C@@H](CCCNC(=N)N)C(=O)N[C@@H](Cc1ccccc1)C(=O)N[C@@H](CCCNC(=N)N)C(=O)N[C@@H](Cc1c[nH]c2ccccc12)C(=O)N[C@@H](CCCCN)C(=O)N[C@@H](Cc1ccccc1)C(=O)N[C@@H](CCCCN)C(=O)NCC(=O)N[C@@H](CCCCN)C(N)=O [C18-Pep19-short] (Stearoyl-GKKYRRFRWKFKGK-NH2) | > 64 µg/mL | > 64 | higher MIC values | higher MIC values | MBC value [4]: > 64 µg/mL; MIC value [5]: > 64 µg/mL
7 | N=C(N)NCCC[C@H](NC(=O)[C@H](Cc1ccc(O)cc1)NC(=O)[C@H](CCCCN)NC(=O)[C@H](CCCCN)NC(=O)[C@H](CS)NC(=O)CN)C(=O)N[C@@H](CCCNC(=N)N)C(=O)N[C@@H](Cc1ccccc1)C(=O)N[C@@H](CCCNC(=N)N)C(=O)N[C@@H](Cc1c[nH]c2ccccc12)C(=O)N[C@@H](CCCCN)C(=O)N[C@@H](Cc1ccccc1)C(=O)N[C@@H](CCCCN)C(=O)NCC(=O)N[C@@H](CCCCN)C(=O)N[C@@H](Cc1ccccc1)C(=O)N[C@@H](Cc1c[nH]c2ccccc12)C(=O)N[C@@H](Cc1ccccc1)C(=O)N[C@@H](Cc1c[nH]c2ccccc12)C(=O)NCC(N)=O [Pep19-2.5, reference compound] | > 64 µg/mL | > 64 | – | – | –
8 | C11-GKKYRRFRWKFKGK [C11-Pep19-short, Pep19-short conjugated at the N-terminus to undecanoic acid (C11:0)] | 4 µg/mL | 4 | – | – | solubility in water [6]: high solubility in water; MBC value [4]: 4 µg/mL; speed of elimination compared among the peptides [7]: faster excretion from the body; change in number of cfu/mL ([8]; n = 3): only a small decrease in the number of cfu/mL; time until all bacteria killed ([8]; 1 × MIC, n=3): 4 h; time until all bacteria killed ([8]; 2 × MIC, n=3): 0.5 h; time until all bacteria killed / no detectable cfu [8, 10]: ≤ 30 min; mode of action ([8]; 4 × MIC, n = 3): fast and bactericidal mode of action; MIC value [5]: 4 µg/mL
9 | GKKYRRFRWKFKGK-NH2 [Pep19-short, shortened variant of Pep19-4LF without hydrophobic moiety, …-NH2] | 64 µg/mL | 64 | 64 µg/mL | > 64 µg/mL | speed of elimination compared among the peptides [7]: no difference in the elimination time; MIC [9]: > 64 µg/mL
10 | bacitracin | – | – | – | – | change in number of cfu/mL ([8]; n = 3): only a small decrease in the number of cfu/mL; mode of action ([8]; 2 × MIC, n=3): bacteriostatic mode of action; time until no detectable cfu [8, 10]: 8 h; mode of action ([8]; 4 × MIC, n = 3): bactericidal activity
